Laboratory results: US20120010075A1 (priority 2009, published 2012)
Like-named read-outs stand apart in the source and are kept apart here.

Key:
Ustilago maydis = assay: In vitro fungitoxicity of hydrazones with and without copper towards Ustilago maydis (Example 29, Table 4); format: cell-based; details: 1 μg/mL, 48 h
[1] = test system: Septoria tritici isolate USA-184; assay: In vitro fungitoxicity of hydrazones with and without copper towards Septoria tritici (Example 30, Table 5); format: cell-based; details: Zymoseptoria tritici, 0.05 μg/mL
[2] = test system: Leptosphaeria nodorum (glume blotch of wheat); assay: Cu-hydrazone complexes versus parent hydrazones against glume blotch of wheat (Example 32, Table 8); format: in vivo, Leptosphaeria nodorum on wheat (cultivar Yuma); details: Parastagonospora nodorum, 200 ppm spray, inoculated after 24 h

O=C(N/N=C/c1cc(Cl)cc(Cl)c1O)c1ccccc1 [Example 16]
% Inhn. Plus copper Observed (Ustilago maydis; copper-plus medium (CuCl2, 10 μM)): 80.0%
inhibition of growth at 1 µg/mL (Ustilago maydis; Mycosarcoma maydis, copper-minus medium, read-out: % Inhn. Minus copper Observed): 0%
inhibition at 0.05 µg/mL ([1]; Colby formula, CuCl2, read-out: % Inhibition Plus copper Predicted): 35.8%
inhibition at 0.05 µg/mL ([1]; copper-minus medium, 90 h, read-out: % Inhibition Minus copper Observed): 35.8%
inhibition at 0.05 µg/mL ([1]; copper-plus medium CuCl2, 90 h, read-out: % Inhibition Plus copper Observed): 93.6%
pest or weed control at 200 ppm [2]: 41%
